Test results taken from article PMC2713172 (Biochemistry, 2008).

Tests used:
CYP2C9 F100L mutant [1] = biological target: T1, CYP2C9 F100L mutant (Homo sapiens, UniProt P11712, F100L)
CYP2C9 F114L mutant [2] = biological target: T2, CYP2C9 F114L mutant (Homo sapiens, UniProt P11712, F114L)
CYP2C9 F476L mutant [3] = biological target: T3, CYP2C9 F476L mutant (Homo sapiens, UniProt P11712, F476L); settings: F476L
CYP2C9 F114W mutant [4] = biological target: T4, CYP2C9 F114W mutant (Homo sapiens, UniProt P11712, F114W)
CYP2C9 F476W mutant [5] = biological target: T5, CYP2C9 F476W mutant (Homo sapiens, UniProt P11712, F476W)
[6] = biological target: T6, CYP2C9 F114L/F476L double mutant (Homo sapiens, UniProt P11712, F114L/F476L)
wild-type CYP2C9 [7] = biological target: T7, wild-type CYP2C9 (Homo sapiens, UniProt P11712)
CYP2C9 F100L mutant [8] = biological target: T1, CYP2C9 F100L mutant; remark: listed apart in the source
CYP2C9 F114L mutant [9] = biological target: T2, CYP2C9 F114L mutant; remark: listed apart in the source
CYP2C9 F476L mutant [10] = biological target: T3, CYP2C9 F476L mutant
CYP2C9 F114W mutant [11] = biological target: T4, CYP2C9 F114W mutant; remark: listed apart in the source
CYP2C9 F476W mutant [12] = biological target: T5, CYP2C9 F476W mutant; remark: listed apart in the source
[13] = biological target: T6, CYP2C9 F114L/F476L double mutant; remark: listed apart in the source
[14] = biological target: CYP2C9 F114W/F476W double mutant (Homo sapiens, UniProt P11712, F114W/F476W)
wild-type CYP2C9 [15] = biological target: T7, wild-type CYP2C9; remark: listed apart in the source
wild-type CYP2C9 [16] = biological target: T7, wild-type CYP2C9; settings: wild-type CYP2C9
CYP2C9 = settings: structure 1OG5; cited from earlier work
wild-type CYP2C9 [17] = biological target: T7, wild-type CYP2C9; settings: WT
[18] = substrate: CC(=O)C[C@@H](c1ccccc1)c1c(O)c2ccccc2oc1=O; assay: purified protein, by the assay type; settings: other: WT; substrate hydroxylation; 37.0 °C

Molecule: CC(=O)C[C@@H](c1ccccc1)c1c(O)c2ccccc2oc1=O [(S)-warfarin, (S)-Warfarin]
- percent of wild-type kcat/Km (CYP2C9 F100L mutant [1]): 133%
- percent of wild-type kcat/Km (CYP2C9 F114L mutant [2]): 2%
- percent of wild-type kcat/Km (CYP2C9 F476L mutant [3]): 2%
- percent of wild-type kcat/Km (CYP2C9 F114W mutant [4]): 83%
- percent of wild-type kcat/Km (CYP2C9 F476W mutant [5]): 500%
- percent of wild-type kcat/Km [6]: 0.4%
- ΔAmax (maximum observed difference 390–420 nm) (wild-type CYP2C9 [7]): 5.3 ± 0.1 ×10^−3
- percent of wild-type ΔA/K (wild-type CYP2C9 [7]; Wild-type): 100%
- ΔAmax (maximum observed difference 390–420 nm) (CYP2C9 F100L mutant [8]): 6.5 ± 0.06 ×10^−3
- percent of wild-type ΔA/K (CYP2C9 F100L mutant [8]; F100L): 262%
- ΔAmax (maximum observed difference 390–420 nm) (CYP2C9 F114L mutant [9]): 10 ± 0.07 ×10^−3
- percent of wild-type ΔA/K (CYP2C9 F114L mutant [9]; F114L): 139%
- ΔAmax (maximum observed difference 390–420 nm) (CYP2C9 F476L mutant [10]): 11 ± 0.2 ×10^−3
- ΔAmax (maximum observed difference 390–420 nm) (CYP2C9 F114W mutant [11]): 12 ± 0.3 ×10^−3
- percent of wild-type ΔA/K (CYP2C9 F114W mutant [11]; F114W): 636%
- ΔAmax (maximum observed difference 390–420 nm) (CYP2C9 F476W mutant [12]): 9.3 ± 0.1 ×10^−3
- percent of wild-type ΔA/K (CYP2C9 F476W mutant [12]; F476W): 225%
- ΔAmax (maximum observed difference 390–420 nm) [13]: 15 ± 0.3 ×10^−3
- percent of wild-type ΔA/K ([13]; F114L/F476L): 75%
- ΔAmax (maximum observed difference 390–420 nm) [14]: 12 ± 0.2 ×10^−3
- percent of wild-type ΔA/K ([14]; F114W/F476W): 303%
- distance from the heme to all ring protons (wild-type CYP2C9 [15]): 6–7 Å
- distance from the heme to the acetonyl methyl group (wild-type CYP2C9 [15]): ~ 9 Å
- coupling of hydroxylation to NADPH consumption (wild-type CYP2C9 [16]): ~ 4%
- distance above the heme in crystal structure (CYP2C9): ~ 10 Å
- percent of wild-type kcat/Km (wild-type CYP2C9 [17]): 100%

B1: wild-type CYP2C9 (Homo sapiens) (protein)
chain: MALLLAVFLCLSCLLLLSLWRQSSGRGKLPPGPTPLPVIGNILQIGIKDISKSLTNLSKVYGPVFTLYFGLKPIVVLHGYEAVKEALIDLGEEFSGRGIFPLAERANRGFGIVFSNGKKWKEIRRFSLMTLRNFGMGKRSIEDRVQEEARCLVEELRKTKASPCDPTFILGCAPCNVICSIIFHKRFDYKDQQFLNLMEKLNENIKILSSPWIQICNNFSPIIDYFPGTHNKLLKNVAFMKSYILEKVKEHQESMDMNNPQDFIDCFLMKMEKEKHNQPSEFTIESLENTAVDLFGAGTETTSTTLRYALLLLLKHPEVTAKVQEEIERVIGRNRSPCMQDRSHMPYTDAVVHEVQRYIDLLPTSLPHAVTCDIKFRNYLIPKGTTILISLTSVLHDNKEFPNPEMFDPHHFLDEGGNFKKSKYFMPFSAGKRICVGEALAGMELFLFLTSILQNFNLKSLVDPKNLDTTPVVNGFASVPPFYQLCFIPV
- Km [18]: 4.1 ± 0.3 µM
- kcat [18]: 0.00417 ± 6.7e-05 s⁻¹
- kcat/Km [18]: 0.06 (100) min^−1 μM^−1
